Test results from paper PMC9827809, “Identification of sitagliptin binding proteins by affinity purification mass spectrometry” (Acta Biochimica et Biophysica Sinica, 2022).

Columns and labels:
Type in all cases: binding
[1] = biological target: T1, T-complex protein 1 subunit alpha (TCP1) (Homo sapiens, UniProt P17987, D88A); assay: SPR on mutant TCP1
T1 construct: TCP1 mutant D88A

[2] = biological target: T2, T-complex protein 1 subunit alpha (TCP1) (Homo sapiens, UniProt P17987); assay: SPR (Biacore 8K, CM5 chip, immobilized protein); also SILAC AP-MS from HEK293T lysate
T2 construct: C-terminal Flag-His6 tag fused TCP1, expressed in E. coli BL21 (DE3)

[3] = biological target: T3, cell cycle and apoptosis regulator protein 2 (CCAR2) (Homo sapiens, UniProt Q8N163); assay: as above
T3 construct: C-terminal Flag tag fused CCAR2 in pGEX-4T-1 (GST-tagged), expressed in E. coli BL21 (DE3)

[4] = biological target: T4, lysophospholipase-like 1 (LYPLAL1) (Homo sapiens, UniProt Q5VWZ2); assay: as above
T4 construct: LYPLAL1 in pDEST15, expressed in E. coli BL21 (DE3)
T4 sequence (Q5VWZ2 2-237): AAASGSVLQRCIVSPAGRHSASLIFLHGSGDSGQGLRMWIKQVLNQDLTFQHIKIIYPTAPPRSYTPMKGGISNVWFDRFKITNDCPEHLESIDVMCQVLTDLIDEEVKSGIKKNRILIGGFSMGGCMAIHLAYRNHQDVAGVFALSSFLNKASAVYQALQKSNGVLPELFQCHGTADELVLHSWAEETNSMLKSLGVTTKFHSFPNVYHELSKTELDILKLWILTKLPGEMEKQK

T1 sequence (P17987 whole entry D88A, one chain of several): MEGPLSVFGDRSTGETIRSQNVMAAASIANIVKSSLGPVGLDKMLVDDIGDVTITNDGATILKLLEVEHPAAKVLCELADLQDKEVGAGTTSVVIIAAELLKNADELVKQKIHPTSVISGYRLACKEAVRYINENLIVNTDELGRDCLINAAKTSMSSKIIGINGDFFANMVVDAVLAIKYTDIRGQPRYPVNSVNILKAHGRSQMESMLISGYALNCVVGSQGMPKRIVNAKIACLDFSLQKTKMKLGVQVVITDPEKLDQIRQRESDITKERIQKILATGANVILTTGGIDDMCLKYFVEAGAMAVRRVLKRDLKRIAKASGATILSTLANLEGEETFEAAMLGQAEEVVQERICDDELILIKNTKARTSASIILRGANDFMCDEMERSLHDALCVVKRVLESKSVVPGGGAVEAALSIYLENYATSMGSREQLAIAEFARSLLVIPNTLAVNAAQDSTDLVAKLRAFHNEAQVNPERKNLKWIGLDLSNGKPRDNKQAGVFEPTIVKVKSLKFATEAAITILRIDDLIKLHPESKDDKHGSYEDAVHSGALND
T2 sequence (P17987 whole entry, the tested form may be a part, one chain of several): as the sequence (P17987 whole entry D88A, one chain of several) above, with A88D counted along it
T3 sequence (Q8N163 whole entry, the tested form may be a part): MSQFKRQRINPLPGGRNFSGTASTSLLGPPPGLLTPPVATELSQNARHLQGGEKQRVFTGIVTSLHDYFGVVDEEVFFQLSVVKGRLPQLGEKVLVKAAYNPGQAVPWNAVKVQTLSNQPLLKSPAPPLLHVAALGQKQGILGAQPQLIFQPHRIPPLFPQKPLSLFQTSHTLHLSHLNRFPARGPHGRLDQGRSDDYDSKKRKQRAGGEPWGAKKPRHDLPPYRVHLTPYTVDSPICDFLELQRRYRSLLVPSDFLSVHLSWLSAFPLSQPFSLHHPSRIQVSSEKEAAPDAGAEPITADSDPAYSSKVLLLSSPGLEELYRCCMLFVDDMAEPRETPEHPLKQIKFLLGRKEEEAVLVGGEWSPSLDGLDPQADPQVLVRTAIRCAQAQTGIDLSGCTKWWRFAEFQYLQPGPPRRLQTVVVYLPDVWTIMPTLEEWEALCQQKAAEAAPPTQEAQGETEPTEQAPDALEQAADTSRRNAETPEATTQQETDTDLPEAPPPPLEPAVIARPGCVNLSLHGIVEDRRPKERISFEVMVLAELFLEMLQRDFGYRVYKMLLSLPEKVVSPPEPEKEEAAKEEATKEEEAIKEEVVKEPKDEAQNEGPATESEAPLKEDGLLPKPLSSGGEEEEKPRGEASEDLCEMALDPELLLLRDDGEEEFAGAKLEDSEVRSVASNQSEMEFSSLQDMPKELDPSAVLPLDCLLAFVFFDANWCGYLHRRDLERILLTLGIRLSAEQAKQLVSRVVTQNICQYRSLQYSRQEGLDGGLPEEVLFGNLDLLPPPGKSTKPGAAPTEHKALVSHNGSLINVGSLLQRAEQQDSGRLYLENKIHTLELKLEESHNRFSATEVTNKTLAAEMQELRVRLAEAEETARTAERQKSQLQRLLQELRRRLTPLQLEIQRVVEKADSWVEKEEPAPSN

O=C(CCCC[C@@H]1SC[C@@H]2NC(=O)N[C@@H]21)NCCOCCOCCOCCOCCOCc1cn([C@@H](CC(=O)N2CCn3c(nnc3C(F)(F)F)C2)Cc2cc(F)c(F)cc2F)nn1 [biotin-PEG5-sitagliptin]
Kd [1]: 494 µM
Kd [2]: 50.1 µM
Kd [3]: 441 µM
Kd [4]: 1440 µM
